Laboratory results: patent US20120165304A1, “6,7,8,9-Tetrahydro-5H-1,4,7,10a-tetraaza-cyclohept[f]indene derivatives, pharmaceutical compositions containing these compounds, their use and processes for preparing them” (BOEHRINGER INGELHEIM INTERNATIONAL GMBH, priority 2008, published 2012)

What follows are compounds tested against human 5-HT2C receptor (Homo sapiens, UniProt P28335, I156V/I160V/N158S) (assay: cell-based).
Chain of human 5-HT2C receptor (P28335 33-458 I156V/N158S/I160V limits assumed): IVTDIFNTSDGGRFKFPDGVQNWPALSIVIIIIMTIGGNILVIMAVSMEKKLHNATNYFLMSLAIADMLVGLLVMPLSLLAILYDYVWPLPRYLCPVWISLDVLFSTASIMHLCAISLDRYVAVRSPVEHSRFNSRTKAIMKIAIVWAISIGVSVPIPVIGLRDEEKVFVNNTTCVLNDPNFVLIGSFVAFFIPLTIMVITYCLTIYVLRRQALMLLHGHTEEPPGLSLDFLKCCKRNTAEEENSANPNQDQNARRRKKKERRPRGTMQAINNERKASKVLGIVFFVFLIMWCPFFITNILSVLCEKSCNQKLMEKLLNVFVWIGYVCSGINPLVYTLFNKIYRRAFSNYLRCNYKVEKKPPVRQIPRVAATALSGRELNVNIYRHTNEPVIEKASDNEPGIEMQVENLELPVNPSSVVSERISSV
In the case of `Cc1cnn2c(N3CC(C(=O)N4CCC5(CCCCC5)CC4)C3)c3c(nc12)CCNCC3` [Example 31.235], the EC50 is reported as 84 nM. `c1ccc2[nH]c(C3CN(c4c5c(nc6ccnn46)CCNCC5)C3)nc2c1` [Example 34] showed an EC50 of 611 nM. With `O=C(C1CN(c2c3c(nc4ccnn24)CCNCC3)C1)N1CCCC1c1ccccc1` (stereo not drawn) [Example 31.45] the EC50 was 575 nM. In the case of `O=C(NC1CCCCC1C(F)(F)F)C1CN(c2c3c(nc4ccnn24)CCNCC3)C1` (stereo not drawn) [Example 37.58], the EC50 is reported as 224 nM. Compound `CC1CNCCc2c1nc1ccnn1c2N1CCC1` (stereo not drawn) [Example 3.1] has an EC50 of 3 nM. Work on `Cn1c(C2CN(c3c4c(nc5ccnn35)CCNCC4)C2)nc2cc(F)ccc21` [Example 34.38] yielded an EC50 of 290 nM. Work on `CN1CCc2nc3ccnn3c(N3CC(C(=O)N4CCC(F)(F)CC4)C3)c2CC1` [Example 36.23] yielded an EC50 of 124 nM. For `COc1ccc(C2(CNC(=O)C3CN(c4c5c(nc6ccnn46)CCNCC5)C3)CCCCC2)cc1` [Example 31.185], the EC50 was 1470 nM. `c1ccc2c(c1)nc(C1CN(c3c4c(nc5ccnn35)CCNCC4)C1)n2C1CCCC1` [Example 34.29] gave an EC50 of 96 nM. `Brc1cnn2c(N3CCC3)c3c(nc12)CCNCC3` [Example 2, 10-Azetidin-1-yl-3-bromo-6,7,8,9-tetrahydro-5H-1,4,7,10a-tetraaza-cyclohepta[f]indene] gave an EC50 of 4 nM. With `O=C(C1CN(c2c3c(nc4c(Br)cnn24)CCNCC3)C1)N1CCC2(CCC2)C1` [Example 31.133] the EC50 was 60 nM. `CN(C)CCN(C)C(=O)C1CN(c2c3c(nc4ccnn24)CCN(C)CC3)C1` [Example 36.2] showed an EC50 of 563 nM. Compound `O=C(C1CN(c2c3c(nc4ccnn24)CCNCC3)C1)N1Cc2ccccc2C1` [Example 31.44] has an EC50 of 113 nM. Work on `COc1ccccc1C1CCN(c2c3c(nc4ccnn24)CCNCC3)C1` (stereo not drawn) [Example 1.21] yielded an EC50 of 1150 nM. In the case of `c1cncc(Cn2c(C3CN(c4c5c(nc6ccnn46)CCNCC5)C3)nc3ccccc32)c1` [Example 34.27], the EC50 is reported as 46 nM. For `CN(Cc1ccn(C)n1)C(=O)C1CN(c2c3c(nc4ccnn24)CCNCC3)C1` [Example 31.54], the EC50 was 107 nM. With `O=C(C1CN(c2c3c(nc4ccnn24)CCNCC3)C1)N1CCc2c1ccc(F)c2F` [Example 31.155] the EC50 was 52 nM. With `O=C(NCC(F)(F)F)C1CN(c2c3c(nc4ccnn24)CCNCC3)C1` [Example 37.94] the EC50 was 228 nM. With `CC(C)CN(Cc1ccc(F)cc1)C(=O)C1CN(c2c3c(nc4ccnn24)CCNCC3)C1` [Example 31.198] the EC50 was 1810 nM. `CCC#CCNC(=O)C1CN(c2c3c(nc4ccnn24)CCNCC3)C1` [Example 37.52] showed an EC50 of 61 nM. With `c1ccc(CC2CN(c3c4c(nc5ccnn35)CCNCC4)C2)cc1` [Example 1.15] the EC50 was 10 nM. Work on `CN1CCc2nc3ccnn3c(N3CC(C(=O)N4CCC(N5CCCC5)CC4)C3)c2CC1` [Example 36.8] yielded an EC50 of 38 nM. With `CC(=O)N(C)C1CCN(C(=O)C2CN(c3c4c(nc5ccnn35)CCNCC4)C2)CC1` [Example 37.30] the EC50 was 8 nM. `Cn1c(=O)ccc2c(OC3CN(c4c5c(nc6ccnn46)CCNCC5)C3)cccc21` [Example 35.1] showed an EC50 of 41 nM. For `CCN(C(=O)C1CN(c2c3c(nc4ccnn24)CCNCC3)C1)C(C)C` [Example 31.11], the EC50 was 306 nM. `N#CC1CN(c2c3c(nc4ccnn24)CCNCC3)C1` [Example 22, 1-(6,7,8,9-Tetrahydro-5H-1,4,7,10a-tetraaza-cyclohepta[f]inden-10-yl)-azetidine-3-carbonitrile] gave an EC50 of 1020 nM. Compound `c1cncc(OC2CN(c3c4c(nc5ccnn35)CCNCC4)C2)c1` [Example 35.42] has an EC50 of 212 nM. `NC1CCN(C(=O)C2CN(c3c4c(nc5ccnn35)CCNCC4)C2)C1` (stereo not drawn) [Example 37.16] was tested, and the EC50 was 5 nM. Compound `c1cc2nc3c(c(N4CCC4)n2n1)CCNCC3` [Example 7.4] has an EC50 of 5 nM. `O=C(C1CN(c2c3c(nc4ccnn24)CCNCC3)C1)N1CCC(c2ccccc2)(c2ccccc2)CC1` [Example 31.72] gave an EC50 of 819 nM. For `O=C(C1CN(c2c3c(nc4ccnn24)CCNCC3)C1)N1CCCC2(CCc3ccccc32)C1` (stereo not drawn) [Example 31.173], the EC50 was 440 nM. `CN1CCc2nc3ccnn3c(N3CC(C(=O)N4CCC(C(F)(F)F)C4)C3)c2CC1` (stereo not drawn) [Example 36.27] gave an EC50 of 89 nM. `c1nn2c(N3CCC3)c3c(nc2c1CCC1CC1)CCNCC3` [Example 6.1] showed an EC50 of 365 nM. Work on `CC1(C(=O)N2CCc3c(cccc3C(F)(F)F)C2)CN(c2c3c(nc4ccnn24)CCNCC3)C1` [Example 32.3] yielded an EC50 of 1960 nM. `CCC(C)(C)NC(=O)C1CN(c2c3c(nc4ccnn24)CCNCC3)C1` [Example 37.54] gave an EC50 of 118 nM. Compound `Fc1cccc(F)c1OC1CN(c2c3c(nc4ccnn24)CCNCC3)C1` [Example 35.41] has an EC50 of 9 nM. `COc1ccc(OC2CN(c3c4c(nc5ccnn35)CCNCC4)C2)c(Br)c1` [Example 35.30] was tested, and the EC50 was 40 nM. Work on `c1ccc2c(c1)ncn2C1CCN(c2c3c(nc4ccnn24)CCNCC3)CC1` [Example 1.42] yielded an EC50 of 9600 nM. `O=C(C1CN(c2c3c(nc4ccnn24)CCNCC3)C1)N1CCCC(F)(F)C1` [Example 31.201] showed an EC50 of 24 nM. For `Brc1cccc(OC2CN(c3c4c(nc5ccnn35)CCNCC4)C2)c1` [Example 35.14], the EC50 was 477 nM. For `CN1CCc2nc3ccnn3c(N3CC(C(=O)N4CCN(C)C(=O)C4)C3)c2CC1` [Example 36.19], the EC50 was 257 nM. For `CN1CCc2nc3ccnn3c(N3CC(C(=O)N4CCN(C)CC4)C3)c2CC1` [Example 36.51], the EC50 was 81 nM. `CN(CCc1cccc(Cl)c1)C(=O)C1CN(c2c3c(nc4ccnn24)CCNCC3)C1` [Example 31.59] showed an EC50 of 147 nM. `c1cnc2ccc(OC3CN(c4c5c(nc6ccnn46)CCNCC5)C3)cc2c1` [Example 35.43] was tested, and the EC50 was 207 nM. `O=C(C1CN(c2c3c(nc4ccnn24)CCNCC3)C1)N1CC[C@@H](F)C1` [Example 31.205] gave an EC50 of 116 nM. Work on `O=C(NC1CCCOC1)C1CN(c2c3c(nc4ccnn24)CCNCC3)C1` (stereo not drawn) [Example 37.49] yielded an EC50 of 44 nM. In the case of `c1cc2nc3c(c(N4CCCCCC4)n2n1)CCNCC3` [Example 7.5], the EC50 is reported as 592 nM. `O=C(C1CN(c2c3c(nc4ccnn24)CCNCC3)C1)N1CCc2sccc2C1` [Example 31.36] was tested, and the EC50 was 57 nM. In the case of `O=C(C1CN(c2c3c(nc4ccnn24)CCNCC3)C1)N1CCC(c2cccc(F)c2)CC1` [Example 31.211], the EC50 is reported as 31 nM. Compound `CCOC1CN(c2c3c(nc4ccnn24)CCNCC3)C1` [Example 20.2] has an EC50 of 658 nM. With `O=C(NC1CCc2ccccc21)C1CN(c2c3c(nc4ccnn24)CCNCC3)C1` (stereo not drawn) [Example 31.32] the EC50 was 49 nM. For `CN(Cc1ccc(C#N)cc1)C(=O)C1CN(c2c3c(nc4ccnn24)CCNCC3)C1` [Example 31.2], the EC50 was 14 nM. `CC1CCCCN1C(=O)C1CN(c2c3c(nc4ccnn24)CCNCC3)C1` (stereo not drawn) [Example 31.62] was tested, and the EC50 was 925 nM. In the case of `COc1ccc(OC2CN(c3c4c(nc5ccnn35)CCNCC4)C2)c(F)c1` [Example 35.34], the EC50 is reported as 65 nM. Compound `Cc1ccc(OCC2CN(c3c4c(nc5ccnn35)CCNCC4)C2)c(F)c1F` [Example 15.10] has an EC50 of 20 nM. `CNCCN(C)C(=O)C1CN(c2c3c(nc4ccnn24)CCNCC3)C1` [Example 37.20] was tested, and the EC50 was 26 nM. `Fc1ccc2[nH]c(C3CN(c4c5c(nc6ccnn46)CCNCC5)C3)nc2c1` [Example 34.14] was tested, and the EC50 was 369 nM. `Cc1ccccc1OCC1CN(c2c3c(nc4ccnn24)CCNCC3)C1` [Example 15.1] was tested, and the EC50 was 6 nM. Compound `CCN1CCCN(C(=O)C2CN(c3c4c(nc5ccnn35)CCN(C)CC4)C2)CC1` [Example 36.50] has an EC50 of 81 nM. Work on `O=C(C1CN(c2c3c(nc4ccnn24)CCNCC3)C1)N1CCCC1c1nccs1` (stereo not drawn) [Example 31.52] yielded an EC50 of 199 nM. `Cc1cccc(CN(C)C(=O)C2CN(c3c4c(nc5ccnn35)CCNCC4)C2)n1` [Example 31.208] gave an EC50 of 62 nM. In the case of `Cc1cnn2c(N3CC(C(=O)N4CCc5ccccc54)C3)c3c(nc12)CCNCC3` [Example 31.236], the EC50 is reported as 31 nM. For `CC(C)(C)NC1CCN(C(=O)C2CN(c3c4c(nc5ccnn35)CCNCC4)C2)CC1` [Example 37.22], the EC50 was 2 nM. `FC(F)(F)c1cccnc1OC1CN(c2c3c(nc4ccnn24)CCNCC3)C1` [Example 20.12] gave an EC50 of 959 nM. `CN(C)C(=O)C1CN(c2c3c(nc4ccnn24)CCNCC3)C1` [Example 9, 1-(6,7,8,9-Tetrahydro-5H-1,4,7,10a-tetraaza-cyclohepta[f]inden-10-yl)-azetidine-3-carboxylic acid dimethylamide] gave an EC50 of 71 nM. For `COc1ccc2cc(OC3CN(c4c5c(nc6ccnn46)CCNCC5)C3)ccc2c1` [Example 35.13], the EC50 was 1360 nM. `O=C(C1CN(c2c3c(nc4ccnn24)CCNCC3)C1)N1CCC1` [Example 31.7] was tested, and the EC50 was 3300 nM. Work on `C[C@@H]1C[C@H](C)CN(C(=O)C2CN(c3c4c(nc5ccnn35)CCN(C)CC4)C2)C1` [Example 36.15] yielded an EC50 of 154 nM. With `O=C(C1CN(c2c3c(nc4ccnn24)CCNCC3)C1)N1CCC(CCc2ccccc2)C1` (stereo not drawn) [Example 31.99] the EC50 was 64 nM. In the case of `c1ccc(OCC2CN(c3c4c(nc5ccnn35)CCNCC4)C2)cc1` [Example 15.17], the EC50 is reported as 31 nM. In the case of `O=C(C1CN(c2c3c(nc4ccnn24)CCNCC3)C1)N1CCCCC(F)(F)C1` [Example 41, (3,3-Difluoro-perhydro-azepin-1-yl)-[1-(6,7,8,9-tetrahydro-5H-1,4,7,10a-tetraaza-cyclohept[f]inden-10-yl)-azetidin-3-yl]-methanone], the EC50 is reported as 7 nM. With `Fc1ccc2[nH]c(C3CN(c4c5c(nc6ccnn46)CCNCC5)C3)nc2c1F` [Example 34.23] the EC50 was 594 nM. Work on `COc1cc(Br)ccc1OC1CN(c2c3c(nc4ccnn24)CCNCC3)C1` [Example 35.17] yielded an EC50 of 88 nM. `CC(NC(=O)C1CN(c2c3c(nc4ccnn24)CCNCC3)C1)C(C)(C)C` (stereo not drawn) [Example 37.111] was tested, and the EC50 was 139 nM. Compound `c1nn2c(N3CCC3)c3c(nc2c1C1CC1)CCNCC3` [Example 29, 10-Azetidin-1-yl-3-cyclopropyl-6,7,8,9-tetrahydro-5H-1,4,7,10a-tetraaza-cyclohepta[f]indene] has an EC50 of 81 nM. In the case of `CCCC1CCN(C(=O)C2CN(c3c4c(nc5ccnn35)CCNCC4)C2)CC1` [Example 31.69], the EC50 is reported as 36 nM. `O=C(C1CN(c2c3c(nc4ccnn24)CCNCC3)C1)N1CC[C@@H]2CCCC[C@@H]2C1` [Example 31.131] gave an EC50 of 74 nM. `CC1(C)CCCN(C(=O)C2CN(c3c4c(nc5ccnn35)CCNCC4)C2)C1` [Example 31.30] showed an EC50 of 338 nM.
